This is an account of results in ChEMBL document CHEMBL4699412, “Understanding the mechanism of action of pyrrolo[3,2-b]quinoxaline-derivatives as kinase inhibitors” (RSC Med Chem, 2020).

The subject of one data set is Maver1. Nature of the data set: cells. Particulars: Homo sapiens, Maver1, 72 h.
A short description of data set [1]: cells. Particulars: Homo sapiens, Ri-1, 72 h.
Data set [2] can be described thus: cells. Particulars: Homo sapiens, PCL12, 72 h.
Data set [3] concerns HUVEC. As to the kind of experiment: Antiangiogenic activity against HUVEC cells assessed as reduction in total branching points incubated for 15 hrs by matrigel-based assay relative to control. The data set is classed as functional, Homo sapiens.
Data set [4] can be described thus: Toxicity in NOD-SCID nude mouse xenografted with human Ri1 cells assessed as swelling surrounding the area of injection at 100 mg/kg, ip. Particulars: in vivo. Format: organism-based. On the technique in general: In xenograft studies the graft and the host belong to different species.
For data set [5], the system named is HUVEC. As to the kind of experiment: Antiangiogenic activity against HUVEC cells assessed as reduction in total loops incubated for 15 hrs by matrigel-based assay relative to control. Format: functional, Homo sapiens.
For data set [6], the target named is Tyrosine-protein kinase Yes (Homo sapiens) (UniProt P07947). As to the kind of experiment: Inhibition of wild-type human partial length YES (T257 to L543 residues) expressed in bacterial expression system at 1 uM by Kinomescan method relative to control.
Data set [7] addresses T1, Ephrin type-A receptor 3 (Homo sapiens) (UniProt P29320).
T1 sequence (whole entry): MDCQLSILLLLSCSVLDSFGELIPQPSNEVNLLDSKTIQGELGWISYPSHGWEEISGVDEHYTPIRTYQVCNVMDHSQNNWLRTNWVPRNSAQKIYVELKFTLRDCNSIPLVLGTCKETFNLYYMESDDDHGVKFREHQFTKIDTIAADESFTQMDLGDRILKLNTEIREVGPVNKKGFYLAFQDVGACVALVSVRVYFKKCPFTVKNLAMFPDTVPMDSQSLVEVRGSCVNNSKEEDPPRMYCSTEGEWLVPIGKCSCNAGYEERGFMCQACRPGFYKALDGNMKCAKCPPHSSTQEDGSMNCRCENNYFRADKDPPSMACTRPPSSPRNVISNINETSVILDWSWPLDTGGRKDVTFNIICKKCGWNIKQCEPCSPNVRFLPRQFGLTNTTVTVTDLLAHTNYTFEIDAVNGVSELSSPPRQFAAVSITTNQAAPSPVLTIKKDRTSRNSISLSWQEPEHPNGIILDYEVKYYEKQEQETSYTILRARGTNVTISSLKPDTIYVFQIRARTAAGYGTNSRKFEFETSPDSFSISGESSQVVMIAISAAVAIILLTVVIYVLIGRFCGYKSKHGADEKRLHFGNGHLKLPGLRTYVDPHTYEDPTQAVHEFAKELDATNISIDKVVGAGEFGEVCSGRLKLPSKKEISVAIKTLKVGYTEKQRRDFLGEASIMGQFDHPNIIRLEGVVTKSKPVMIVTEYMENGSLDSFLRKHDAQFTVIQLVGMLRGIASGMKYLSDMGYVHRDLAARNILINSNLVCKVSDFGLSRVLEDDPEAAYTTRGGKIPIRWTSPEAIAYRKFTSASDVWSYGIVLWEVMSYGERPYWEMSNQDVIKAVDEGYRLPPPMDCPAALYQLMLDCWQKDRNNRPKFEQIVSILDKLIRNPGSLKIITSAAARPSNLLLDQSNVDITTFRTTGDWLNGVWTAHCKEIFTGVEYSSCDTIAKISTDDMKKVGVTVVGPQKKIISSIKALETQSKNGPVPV
As to the kind of experiment: Binding affinity to EPHA3 (unknown origin) assessed as increase in change in melting temperature by differential scanning fluorimetric analysis. A general note: In DSF a fluorescence change marks the thermal transition of the protein.

Data set [8] relates to HUVEC. Nature of the data set: Antiangiogenic activity against HUVEC cells assessed as reduction in tube formation incubated for 15 hrs by matrigel-based assay relative to control. The data set is classed as functional, Homo sapiens.
Data set [9] deals with Tyrosine-protein kinase CSK (Homo sapiens) (UniProt P41240). Nature of the data set: Inhibition of wild-type human full length CSK (M1 to L450 residues) expressed in bacterial expression system at 1 uM by Kinomescan method relative to control.
For the next data set, the system named is JeKo-1. Nature of the data set: cells. Particulars: Homo sapiens, JeKo-1, 72 h.
Another data set addresses T2, Ephrin type-B receptor 4 (Homo sapiens, UniProt P54760).
T2 sequence (P54760 whole entry): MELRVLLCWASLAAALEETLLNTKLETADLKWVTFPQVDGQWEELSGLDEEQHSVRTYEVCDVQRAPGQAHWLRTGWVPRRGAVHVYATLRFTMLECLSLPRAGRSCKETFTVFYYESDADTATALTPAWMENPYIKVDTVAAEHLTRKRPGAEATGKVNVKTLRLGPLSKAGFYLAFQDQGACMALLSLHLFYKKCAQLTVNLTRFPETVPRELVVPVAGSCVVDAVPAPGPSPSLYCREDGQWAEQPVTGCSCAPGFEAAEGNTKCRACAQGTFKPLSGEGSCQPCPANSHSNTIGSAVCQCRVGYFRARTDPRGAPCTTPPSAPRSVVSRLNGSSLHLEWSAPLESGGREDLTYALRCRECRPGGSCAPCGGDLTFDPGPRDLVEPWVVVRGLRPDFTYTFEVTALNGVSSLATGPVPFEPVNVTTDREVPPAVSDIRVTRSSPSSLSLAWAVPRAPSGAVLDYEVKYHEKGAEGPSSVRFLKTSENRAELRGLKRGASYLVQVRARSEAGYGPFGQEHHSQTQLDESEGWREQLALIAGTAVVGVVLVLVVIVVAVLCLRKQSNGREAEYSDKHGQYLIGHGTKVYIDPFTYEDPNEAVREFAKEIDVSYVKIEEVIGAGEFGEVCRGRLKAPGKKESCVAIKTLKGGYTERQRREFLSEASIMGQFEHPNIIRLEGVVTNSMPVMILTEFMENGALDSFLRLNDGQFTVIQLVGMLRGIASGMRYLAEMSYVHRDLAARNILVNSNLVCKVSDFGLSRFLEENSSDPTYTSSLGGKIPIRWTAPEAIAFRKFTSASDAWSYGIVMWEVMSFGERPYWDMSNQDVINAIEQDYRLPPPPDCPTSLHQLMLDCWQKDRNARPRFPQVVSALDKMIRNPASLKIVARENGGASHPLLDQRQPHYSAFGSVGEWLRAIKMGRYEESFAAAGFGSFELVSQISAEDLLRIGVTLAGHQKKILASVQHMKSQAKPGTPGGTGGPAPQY
As to the kind of experiment: Inhibition of full-length human EPHB4 expressed in MEF cells assessed as autophosphorylation by sandwitch-ELISA. Format: cell-based.

Data set [10] in a line: Toxicity in NOD-SCID nude mouse xenografted with human Ri1 cells assessed as body weight loss at 100 mg/kg, ip. The data set is classed as organism-based. Particulars: in vivo.
In data set [11] the target is Tyrosine-protein kinase Lyn (Homo sapiens) (UniProt P07948). As to the kind of experiment: Inhibition of wild-type human partial length LYN (C219 to Q511 residues) expressed in bacterial expression system at 1 uM by Kinomescan method relative to control.
A short description of data set [12]: cells. Particulars: Homo sapiens, SU-DHL-1, 72 h.
Data set [13] can be described thus: cells. Particulars: Homo sapiens, MEC1, 72 h.
In data set [14] the target is Tyrosine-protein kinase BTK (Homo sapiens) (UniProt Q06187). Nature of the data set: Inhibition of wild-type human full length BTK (M1 to S659 residues) expressed in mammalian expression system at 1 uM by Kinomescan method relative to control.
Data set [15] can be described thus: Antitumor activity against human Ri1 cells xenografted in NOD-SCID mouse assessed as fold change in tumor size at 100 mg/kg, ip administered for 2 weeks by caliper method relative to control. Format: functional, Ri-1.
Data set [16] is described as follows: Toxicity in NOD-SCID nude mouse xenografted with human Ri1 cells assessed as body weight loss at 100 mg/kg, ip once every 5 days. Particulars: in vivo, 360 h.

Chain of Tyrosine-protein kinase BTK (Homo sapiens) (Q06187 whole entry, the tested form may be a part): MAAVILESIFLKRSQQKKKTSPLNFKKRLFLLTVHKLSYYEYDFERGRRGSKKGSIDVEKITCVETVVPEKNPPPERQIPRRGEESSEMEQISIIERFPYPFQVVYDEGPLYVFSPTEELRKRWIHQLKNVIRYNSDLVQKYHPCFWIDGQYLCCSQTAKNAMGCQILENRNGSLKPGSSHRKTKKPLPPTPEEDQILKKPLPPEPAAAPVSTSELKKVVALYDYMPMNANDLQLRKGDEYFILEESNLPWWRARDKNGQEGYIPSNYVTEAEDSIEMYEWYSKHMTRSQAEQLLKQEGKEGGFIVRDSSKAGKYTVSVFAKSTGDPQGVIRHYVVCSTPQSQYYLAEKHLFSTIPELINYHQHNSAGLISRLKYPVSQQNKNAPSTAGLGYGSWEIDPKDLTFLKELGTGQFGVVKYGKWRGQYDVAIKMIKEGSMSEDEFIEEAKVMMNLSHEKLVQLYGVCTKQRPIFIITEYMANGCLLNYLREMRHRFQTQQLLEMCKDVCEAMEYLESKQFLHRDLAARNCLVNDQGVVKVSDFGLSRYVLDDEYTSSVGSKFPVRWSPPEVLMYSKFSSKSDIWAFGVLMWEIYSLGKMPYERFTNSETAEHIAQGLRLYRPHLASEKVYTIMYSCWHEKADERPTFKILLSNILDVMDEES
Chain of Tyrosine-protein kinase Lyn (Homo sapiens) (P07948 2-512 limits assumed): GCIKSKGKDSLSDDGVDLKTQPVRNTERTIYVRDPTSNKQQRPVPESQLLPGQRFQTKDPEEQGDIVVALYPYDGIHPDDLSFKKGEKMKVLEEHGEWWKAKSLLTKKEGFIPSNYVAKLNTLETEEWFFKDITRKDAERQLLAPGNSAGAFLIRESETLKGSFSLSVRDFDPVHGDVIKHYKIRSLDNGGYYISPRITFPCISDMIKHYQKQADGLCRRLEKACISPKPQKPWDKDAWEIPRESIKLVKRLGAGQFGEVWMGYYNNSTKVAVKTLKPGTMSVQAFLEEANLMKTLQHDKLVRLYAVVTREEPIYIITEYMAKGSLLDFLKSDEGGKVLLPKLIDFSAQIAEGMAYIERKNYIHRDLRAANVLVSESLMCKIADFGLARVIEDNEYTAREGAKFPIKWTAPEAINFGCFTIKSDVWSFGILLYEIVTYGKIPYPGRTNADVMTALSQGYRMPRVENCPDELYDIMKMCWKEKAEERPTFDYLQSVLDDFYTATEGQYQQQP
Chain of Tyrosine-protein kinase Yes (Homo sapiens) (P07947 2-543 limits assumed): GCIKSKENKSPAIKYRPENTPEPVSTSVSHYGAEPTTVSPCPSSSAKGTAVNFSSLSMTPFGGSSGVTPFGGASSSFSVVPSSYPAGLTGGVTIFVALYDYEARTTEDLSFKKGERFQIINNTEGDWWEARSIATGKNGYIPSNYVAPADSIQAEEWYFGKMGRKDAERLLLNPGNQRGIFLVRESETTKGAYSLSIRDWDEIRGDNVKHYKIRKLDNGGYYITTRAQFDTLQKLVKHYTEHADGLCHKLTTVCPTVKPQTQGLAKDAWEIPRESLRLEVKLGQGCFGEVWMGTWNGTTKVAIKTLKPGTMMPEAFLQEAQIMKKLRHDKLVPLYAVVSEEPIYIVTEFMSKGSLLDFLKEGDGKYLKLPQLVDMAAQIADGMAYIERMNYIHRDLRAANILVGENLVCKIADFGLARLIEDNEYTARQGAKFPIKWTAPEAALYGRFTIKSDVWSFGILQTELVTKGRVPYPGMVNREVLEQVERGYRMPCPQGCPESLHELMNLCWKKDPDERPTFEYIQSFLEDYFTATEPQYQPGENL
Chain of Tyrosine-protein kinase CSK (Homo sapiens) (P41240 2-450 limits assumed): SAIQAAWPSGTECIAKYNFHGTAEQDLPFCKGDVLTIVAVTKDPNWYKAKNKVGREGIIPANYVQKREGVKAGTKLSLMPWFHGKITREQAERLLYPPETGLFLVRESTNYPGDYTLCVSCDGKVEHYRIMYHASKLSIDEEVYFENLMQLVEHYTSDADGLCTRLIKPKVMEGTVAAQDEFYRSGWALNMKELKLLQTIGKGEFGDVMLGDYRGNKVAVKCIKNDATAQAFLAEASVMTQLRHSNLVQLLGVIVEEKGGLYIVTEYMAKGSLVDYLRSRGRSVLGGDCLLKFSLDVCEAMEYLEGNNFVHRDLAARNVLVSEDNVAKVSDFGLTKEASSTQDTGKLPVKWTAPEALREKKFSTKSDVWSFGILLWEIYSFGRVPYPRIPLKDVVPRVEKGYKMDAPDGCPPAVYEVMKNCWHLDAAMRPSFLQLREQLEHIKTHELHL

For the molecule `Cc1ccc(-n2nc(C(C)(C)C)cc2NC(=O)Nc2ccc(-n3c(N)c(C(N)=O)c4nc5ccccc5nc43)cc2)cc1`, the IC50 in the data set on Maver1, in “cells [1]”, in the data set “cells [2]”, in the data set with JeKo-1, in the data set “cells [12]” and in “cells [13]” was 600 nM each time. Also, the “inhibition (INH)” value worked out at 90% in the data set with HUVEC [3], 100% with HUVEC [5] and 65% in the data set with HUVEC [8]. Further, the Activity result in data set [4] and in data set [10] was “Toxic” throughout. The % control stood at 9.6% in data set [6], 0.9% in data set [9], 0.85% in data set [11] and 0.95% in [14]. Besides, the shift in melting temperature (ΔTm) in data set [7] came to 17.3 °C. The EC50 at Ephrin type-B receptor 4 was 360 nM.
`CC(C)(C)c1cc(NC(=O)Nc2ccc(-n3c(N)c(C(N)=O)c4nc5ccccc5nc43)cc2)n(-c2ccc3ncccc3c2)n1`: the IC50 in the data set with Maver1, in the data set “cells [1]”, in “cells [2]”, in the data set with JeKo-1, in the data set “cells [12]” and in the data set “cells [13]” was 250 nM throughout. Besides, the “fold change (FC)” value in [15] was found to be 3. Moreover, the Activity entry in data set [16] is on record as “Non-Toxic”. Moreover, the ΔTm in data set [7] was determined as 19.3 °C. For the same molecule, the EC50 at Ephrin type-B receptor 4 stood at 1100 nM.
For the molecule `Cc1ccc(-n2nc(C(C)(C)C)cc2NC(=O)Nc2ccc(-n3c(N)c(C(N)=O)c4nc5ccc(NCCCN)cc5nc43)cc2)cc1`, the % control in [6] stood at 1.9%; in [9], 0.65%; in data set [11], 0.5%; in data set [14], 3.3%.

As a reminder, the IC50 is the midpoint of a concentration-inhibition curve. Low readings indicate greater potency in that assay, high ones weaker potency in that assay. Broadly, the ΔTm is the shift of the melting midpoint relative to a reference. What is called EC50 is the concentration that produces a half-maximal response.
